The record followed here is patent US9976141B2, “Compositions and methods for inhibiting gene expression of Hif2alpha” (Arrowhead Madison Inc., priority 2015, dated 2018).

Strand notation (5' to 3'): a small letter for the sugar, then the base; units joined by * are phosphorothioate-linked, units joined directly phosphodiester-linked; [ ] holds rarer units or linkages, { } end groups; capitals alone tell only the bases. {Alk-SMPT-C6} = Alk-SMPT-C6 linker modification (publication code); [invdT] = inverted (3'-3') thymidine; d = 2'-deoxy (DNA); m = 2'-O-methyl; f = 2'-fluoro

The data set relates to human (tumor) Hif2α (EPAS1) mRNA. Description: Hif2α knockdown in orthotopic RCC tumor bearing mice, single injection of RNAi trigger-delivery polymer conjugate, RT-qPCR (Table 7). In kind it is in vivo. The conditions noted are these: single tail vein injection, relative to isotonic glucose. In a few lines: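 Female athymic nude mice carried orthotopic A498-SEAP ccRCC kidney tumours, used 5–6 weeks after implantation. They received one tail-vein injection of RGD-targeted Hif2α RNAi trigger–polymer conjugate or isotonic glucose. Tumour Hif2α mRNA was measured by TaqMan RT-qPCR normalised to CycA (ΔΔCT) and expressed relative to glucose-treated mice.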

The mark [1] stands for this setting: RNAi trigger 115 μg, polymer 100A 375 μg.
The mark [2] stands for this setting: RNAi trigger 50 μg, polymer 064 125 μg.

Take “AD01885 (antisense UUUCAUGAAAUCGUUACGUTT; sense UAUACGUAACGAUUUCAUGAAAT; Hif2alpha RNAi agent antisense strand; modified_base 2,4,6,8,10,14,16,18 /mod_base = “2′-deoxy-2′-fluoro corresponding nucleoside”; modified_base 1,3,5,7,9,11,12,13,15,17,19 /mod_base = “2′-O-methyl corresponding nucleoside”; modified_base 2,3,21 /mod_base = “5′-phosphorothioate corresponding nucleotide”; Hif2alpha RNAi agent sense strand; modified_base 2 modified base = “2′-hydroxy corresponding nucleoside”; modified_base 4,6,8,10,11,12,14,16,18,20,22 /mod_base = “2′-deoxy-2′-fluoro corresponding nucleoside”; modified_base 1,3,5,7,9,13,15,17,19,21 /mod_base = “2′-O-methyl corresponding nucl)”: the “Relative Expression day 4 (Hif2α mRNA in kidney tumor)” value (RNAi trigger 100 μg, polymer 064 250 μg) worked out at 0.146. Take “AD01290 (antisense TUUCAUGAAAUCGUUACGUTT; sense ACGUAACGAUUUCAUGAAAT; Hif2alpha RNAi agent antisense strand; modified_base 2,4,6,8,10,12,14,16,18 /mod_base = “2′-deoxy-2′-fluoro corresponding nucleoside”; modified_base 3,5,7,9,11,13,15,17,19 /mod_base = “2′-O-methyl corresponding nucleoside”; modified_base 21 /mod_base = “5′-phosphorothioate corresponding nucleotide”; Hif2alpha RNAi agent sense strand; modified_base 1,3,7,9,11,13,15,17,19 /mod_base = “2′-deoxy-2′-fluoro corresponding nucleoside”; modified_base 2,4,5,6,8,10,12,14,16,18 /mod_base = “2′-O-methyl corresponding nucleoside”; modified_base 20 /mod_base = “3′-3′-linked nucleotide”; modified_base 1 /mo)”: under setting [1], the “Relative Expression day 4 (Hif2α mRNA in kidney tumor)” value came out at 0.39. In the case of “AD02857 (antisense UUUCAUGAAAUCGUUACGUUG; sense ACGUAACGAUUUCAUGAAAT; Hif2alpha RNAi agent antisense strand; modified_base 2,4,6,8,10,14 /mod_base = “2′-deoxy-2′-fluoro corresponding nucleoside”; modified_base 1,3,5,7,9,11,12,13,15,16,17,18,19,20,21 /mod_base = “2′-O-methyl corresponding nucleoside”; modified_base 2,3,20,21 /mod_base = “5′-phosphorothioate corresponding nucleotide”; Hif2alpha RNAi agent sense strand; modified_base 7,8,9 /mod_base = “2′-deoxy-2′-fluoro corresponding nucleoside”; modified_base 1,2,3,4,5,6,10,11,12,13,14,15,16,17,18,19 /mod_base = “2′-O-methyl corresponding nucleoside”; modified_base 20 /mod_base = “3′-3′-linked nucleotide”; modi)”, the “Relative Expression day 4 (Hif2α mRNA in kidney tumor)” value under setting [2] is on record as 0.192.

With “AD02734 (antisense UUUCAUGAAAUCGUUACGUUG; sense ACGUAACGAUUUCAUGAAAT; Hif2alpha RNAi agent antisense strand; modified_base 2,4,6,8 /mod_base = “2′-deoxy-2′-fluoro corresponding nucleoside”; modified_base 1,3,5,7,9,10,11,12,13,14,15,16,17,18,19,20,21 /mod_base = “2′-O-methyl corresponding nucleoside”; modified_base 2,3,20,21 /mod_base = “5′-phosphorothioate corresponding nucleotide”; Hif2alpha RNAi agent sense strand; modified_base 7,9 /mod_base = “2′-deoxy-2′-fluoro corresponding nucleoside”; modified_base 1,2,3,4,5,6,8,10,11,12,13,14,15,16,17,18,19 /mod_base = “2′-O-methyl corresponding nucleoside”; modified_base 20 /mod_base = “3′-3′-linked nucleotide”; modi)”, the “Relative Expression day 4 (Hif2α mRNA in kidney tumor)” value (RNAi trigger 75 μg, polymer 064 187.5 μg) was determined as 0.262.

“AD03264 (antisense UUUCAUGAAAUCGUUACGUUG; sense ACGUAACGAUUUCAUGAAAT; Hif2alpha RNAi agent antisense strand; modified_base 2,3,8,10,14 /mod_base = “2′-deoxy-2′-fluoro corresponding nucleoside”; modified_base 1,4,5,6,7,9,11,12,13,15,16,17,18,19,20,21 /mod_base = “2′-O-methyl corresponding nucleoside”; modified_base 2,3,20,21 /mod_base = “5′-phosphorothioate corresponding nucleotide”; Hif2alpha RNAi agent sense strand; modified_base 7,8,9 /mod_base = “2′-deoxy-2′-fluoro corresponding nucleoside”; modified_base 1,2,3,4,5,6,10,11,12,13,14,15,16,17,18,19 /mod_base = “2′-O-methyl corresponding nucleoside”; modified_base 20 /mod_base = “3′-3′-linked nucleotide”; modi)”: the “Relative Expression day 4 (Hif2α mRNA in kidney tumor)” value under setting [2] is reported as 0.264. On to “AD02873 (antisense UUUCAUGAAAUCGUUACGUUG; sense UAUACGUAACGAUUUCAUGAAAT; Hif2alpha RNAi agent antisense strand; modified_base 2,4,6,8,10,14,16,18 /mod_base = “2′-deoxy-2′-fluoro corresponding nucleoside”; modified_base 1,3,5,7,9,11,12,13,15,17,19,20,21 /mod_base = “2′-O-methyl corresponding nucleoside”; modified_base 2,3,20,21 /mod_base = “5′-phosphorothioate corresponding nucleotide”; Hif2alpha RNAi agent sense strand; modified_base 2 modified base = “2′-hydroxy corresponding nucleoside”; modified_base 6,8,10,11,12,16,18,20 /mod_base = “2′-deoxy-2′-fluoro corresponding nucleoside”; modified_base 1,3,4,5,7,9,13,14,15,17,19,21,22 /mod_base = “2′-O-methyl correspon)”, for which, under setting [2], the “Relative Expression day 4 (Hif2α mRNA in kidney tumor)” value turned out to be 0.079.

Take “AD01023 (antisense TCUAGCAACAAAACCUUAATT; sense UUAAGGUUUUGUUGCUAGAT; Hif2alpha RNAi agent antisense strand; modified_base 2,4,8,10,12,14,16,18 /mod_base = “2′-deoxy-2′-fluoro corresponding nucleoside”; modified_base 3,5,7,9,11,13,15,17,19 /mod_base = “2′-O-methyl corresponding nucleoside”; modified_base 6 /mod_base = “2′-3′ seco corresponding nucleotide”; modified_base 21 /mod_base = “5′-phosphorothioate corresponding nucleotide”; Hif2alpha RNAi agent sense strand; modified_base 1,3,5,7,9,11,13,15,17,19 /mod_base = “2′-deoxy-2′-fluoro corresponding nucleoside”; modified_base 2,4,6,8,10,12,14,16,18 /mod_base = “2′-O-methyl corresponding nucleoside”; modified_b)”: the “Relative Expression day 4 (Hif2α mRNA in kidney tumor)” value (RNAi trigger 80 μg, polymer 126 400 μg) was determined as 0.93. Turning to “AD01476 (antisense dTfUmUfCmAfUmGfAmAfAmUfCmGfUmUfAmCfGmUdT*dT; sense ACGUAACGAUUUCAUGAAA; siRNA; sense: sugars from the 5' end fmfmfmfmfmfmfmfmfmf, [invdT] at 3' end, all phosphodiester, 5' {Alk-SMPT-C6}, methylation of C not given here; further chemistry not fully specified)”, the “Relative Expression day 4 (Hif2α mRNA in kidney tumor)” value under setting [1] is 0.32. For the substance “AD02074 (antisense TUUCAUGAAAUCGUUACGUTT; sense ACGUAACGAUUUCAUGAAAT; Hif2alpha RNAi agent antisense strand; modified_base 2,4,6,8,10,14,16,18 /mod_base = “2′-deoxy-2′-fluoro corresponding nucleoside”; modified_base 3,5,7,9,11,12,13,15,17,19 /mod_base = “2′-O-methyl corresponding nucleoside”; modified_base 2,3,21 /mod_base = “5′-phosphorothioate corresponding nucleotide”; Hif2alpha RNAi agent sense strand; modified_base 1,3,5,7,8,9,11,13,15,17,19 /mod_base = “2′-deoxy-2′-fluoro corresponding nucleoside”; modified_base 2,4,6,10,12,14,16,18 /mod_base = “2′-O-methyl corresponding nucleoside”; modified_base 20 /mod_base = “3′-3′-linked nucleotide”; modified_base 1)”, the “Relative Expression day 4 (Hif2α mRNA in kidney tumor)” value under setting [2] worked out at 0.566.
